Assay results from patent US20220211861A1, “DRUG CONJUGATES AND METHODS OF USING SAME” (The Board of Trustees of the Leland Staford Junior …, priority 2019, published 2022).
*1 amine or outer side, *2 acyl side, *3 side chain or, on linkers, in order; H or OH if unused. Where a SMILES comes first, the peptide text is derived from it. Bridges are numbered along the chain shown (N, C = ends). Roman numbers before positions name the chains, in order. [ ]: non-standard residue; d: D form. The star is where a group is joined. X1 = O=C([C@H](CCCn1nnc2c1-c1ccccc1CN([*:3])c1ccccc1-2)N[*:1])[*:2]; Dolaproine = CO[C@@H]([C@@H]1CCCN1)[C@@H](C)C(=O)O; X3 = O=C(CCC(=O)[*:1])NCCOCCOCCOCCC(=O)[*:2]; Dil = CC[C@H](C)[C@H](NC)[C@@H](CC(=O)O)OC; PABC = O=C(OCc1ccc(N[*:1])cc1)[*:2]; X2 = C[C@@H](N*)[C@@H](O)c1ccccc1; Cit = NC(=O)NCCC[C@H](N)C(=O)O; NMeV = CN[C@H](C(=O)O)C(C)C

Key:
U87MG cells = assay: Indirect (competition) binding assay displacing Alexa Fluor 488-labeled knottin; settings: competing off 1 nM AF488-2.5F on U87MG cells
Description: The binding affinity of the constructs described in Example 1 were measured using U87MG glioblastoma cells. Drug-free protein affinities were measured directly using Alexa Fluor 488-conjugaed proteins and drug conjugates were measured via a competition binding assay displacing Alexa Fluor 488-labeled K. All constructs tested bound to U87MG cells with low-nanomolar affinity (FIG. 9A-B).
U87MG cells were detached using Enzyme-Free Cell Dissociation Buffer (Gibco). Next, 4×10^4 cells were incubated with 1 nM of Alexa Fluor 488 labeled knottin as a competitor and varying concentrations (0.01-500 nM) of KDC, KFDC, or KADC in IBB for 3 h at 4° C. to minimize internalization. Cells were pelleted and washed twice with 800 μL of PBSA (phosphate buffered saline containing 0.1% bovine serum albumin) and the fluorescence of remaining surface-bound protein was measured by flow cytometry using a Guava EasyCyte 8HT instrument (EMD Millipore). Resulting data were evaluated using FlowJo software (TreeStar Inc) and equilibrium dissociation constants (Kd) were determined using Prism software (GraphPad). Error bars represent the standard deviation of experiments performed in triplicate.

[1] = test system: RFP-expressing U87MG cells; assay: Inhibition of cell proliferation and cytotoxicity over time (IncuCyte, SYTOX green); assay type: cell-based; settings: only 3 h of exposure
Description: To assess the activity of each drug conjugate in a model more representative of in vivo therapy, a similar assay was set up incubating RFP-expressing U87MG cells with SYTOX green and imaging every 4 h. After several time points, cells were washed and media was replaced with either fresh, drug-containing media or fresh, drug-free media (FIG. 14). All conjugates maintained high potency and inhibited proliferation after only 24 h exposure (FIG. 14B). […] The inhibition of cellular proliferation mirrored the measured cytotoxicity. All conjugates induced nearly 100% cell death when incubated without washing, with a wash of drug-containing media, or with washing after 24 h (FIG. 14D, 14E). Each construct was also evaluated under an even more stringent condition, with washing after 3 h of exposure. […] KFDC and KADC experienced substantial reductions in their respective potencies and each inhibited ˜50% of cell proliferation.
RFP-expressing U87MG cells were seeded in a 96-well plate (Corning) at a density of 2.5×10^3 cells per well and grown overnight. Cells were then treated with 200 μL of fresh media containing 10 nM Cytox Green (ThermoFisher) and KDC, KFDC, KADC, or MMAE, at the approximate ED50 of 10 nM or at the saturating concentration of 100 nM. Cells were incubated in an IncuCyte S3 Live-Cell Analysis System for 5 d with images collected every 4 h. […]

[2] = test system: U87MG glioblastoma hip xenografts; assay: Ex vivo biodistribution of AF680-labeled conjugates; assay type: in vivo, mice; settings: radiant efficiency of excised organs
Description: To further assess the tumor-to-background ratio, the uptake of fluorescently-labeled drug conjugate by each organ was measured ex vivo. Nude mice bearing U87MG glioblastoma hip xenografts were injected intravenously with Alexa Fluor 680-conjugated proteins. Mice were sacrificed after 3 or 24 h and organs were removed for imaging. […] Specifically, the liver, kidneys, spleen, pancreases, heart, lungs, bladder, quadriceps, and femur (FIG. 18).
Mice bearing U87MG flank xenografts, as described above, were injected intravenously with 1.5 nmol of Alexa Fluor 680-labeled K, KFc, or KAb. Organs (tumor, liver, kidneys, spleen, pancreas, heart, lungs, bladder, quadriceps muscle, and bone) were collected at end points of 4 h and 24 h. Organs were imaged using an IVIS Spectrum (PerkinElmer). The fluorophore-conjugated protein was detected using excitation/emission wavelengths of 640 nm and 710 nm, respectively. All imaging analysis was performed using Living Image software (Caliper Life Sciences).

[3] = test system: RFP-expressing U87MG spheroids; assay: Confocal imaging of diffusion into tumor spheroids; assay type: cell-based; settings: multiple z-heights
Description: To verify this mechanism, an in-vitro setup was constructed to test and visualize differences in solid tumor diffusion. Solid tumor spheroids of RFP-expressing U87MG glioblastoma cells were grown in ultra-low adhesion 96-well plates. Spheroids were grown to until reaching a diameter of ˜750 μm then treated with 200 nM of AF488-labeled KDC, KFDC, or KADC and incubated for 4 h. […]
To obtain a more quantitative comparison, the relative decay of green channel intensity was compared to red channel intensity from the constitutively expressed RFP. Because the red channel should be uniform, due to stable RFP expression, and is only attenuated by the optical density of the spheroid, this signal intensity was used to correct the signal intensity of the green channel.
Spheroids of RFP-expressing U87MG cells were formed by seeding round-bottom, 96-well ultra-low adhesion plates (Corning) with 4×10^3 cells/well and centrifuging at 1000×g for 10 minutes. Spheroids were grown for 4 days, until reaching a diameter of 750 μm. Spheroids were then incubated in fresh media containing 200 nM of Alexa Fluor 488-conjugated KDC, KFDC, or KADC for 4 h. […] Quantification was performed using FIJI image analysis software. Intensity was calculated radially from the center of each spheroid and plotted as the relative ratio of green intensity corrected for the intensity of RFP as an attenuation control.

U87MG tumor spheroids = assay: Endpoint spheroid killing assay (SYTOX green, plate reader); assay type: cell-based; settings: 100 nM
Description: Next, this in vitro model was modified to test if similar cell killing could be visualized in addition to confocal imaging experiments. Spheroids were treated with drug conjugates or MMAE at a range of concentrations. After incubating with drug conjugates for 5 d, media was replaced with fresh media containing SYTOX green. Fluorescence measured by a BioTek Synergy H4 microtiter plate reader was compared to spheroids treated with lysis buffer. […] To visualize this killing over time, spheroids treated with 50 or 100 nM of drug conjugates or MMAE were imaged every 4 h using an IncuCyte.
Spheroids of U87MG cells were formed by seeding round-bottom, 96-well ultra-low adhesion plates (Corning) with 4×10^3 cells/well and centrifuging at 1000×g for 10 minutes. Spheroids were grown for 2 days before replacing media with 200 μL of fresh media containing 10 nM Cytox Green (ThermoFisher) and a range of concentrations of KDC, KFDC, KADC, or MMAE. After 4 d, trypsin-EDTA was added and cells were placed on a 60 RPM shaker for 10 min to disrupt spheroids. Green fluorescence was measured using was measured with a BioTek Synergy H4 microtiter plate reader. Percent toxicity was calculated by comparing green fluorescence to spheroids treated with lysis buffer.

SMILES: CC[C@H](C)[C@@H]([C@@H](CC(=O)N1CCC[C@H]1[C@H](OC)[C@@H](C)C(=O)N[C@H](C)[C@@H](O)c1ccccc1)OC)N(C)C(=O)[C@@H](NC(=O)[C@H](C(C)C)N(C)C(=O)OCc1ccc(NC(=O)[C@H](CCCNC(N)=O)NC(=O)[C@@H](NC(=O)CCOCCOCCOCCNC(=O)CCC(=O)N2Cc3ccccc3-c3c(nnn3CCC[C@@H]3NC(=O)[C@@H]4CSSC[C@@H]5NC(=O)[C@H](C(C)C)NC(=O)[C@H](CSSC[C@H](NC(=O)CN)C(=O)N6CCC[C@H]6C(=O)N[C@@H](CCCNC(=N)N)C(=O)N6CCC[C@H]6C(=O)N[C@@H](CCCNC(=N)N)C(=O)NCC(=O)N[C@@H](CC(=O)O)C(=O)N[C@@H](CC(N)=O)C(=O)N6CCC[C@H]6C(=O)N6CCC[C@H]6C(=O)N[C@@H](CC(C)C)C(=O)N[C@@H]([C@@H](C)O)C(=O)N4)NC(=O)CNC(=O)[C@H](C)NC(=O)[C@H](CC(C)C)NC(=O)[C@H](CSSC[C@@H](C(=O)NCC(N)=O)NC(=O)[C@H](Cc4ccc(O)cc4)NC(=O)CNC(=O)[C@H](CC(N)=O)NC(=O)[C@@H]4CCCN4C(=O)CNC5=O)NC(=O)[C@H](CC(=O)O)NC(=O)[C@H](CO)NC(=O)[C@H](CC(=O)O)NC(=O)[C@H](CCC(N)=O)NC3=O)-c3ccccc32)C(C)C)cc1)C(C)C [KDC] (I: H-GCPRPRGDNPPLTC[X1]QDSDCLAGCVCGPNGYCG-NH2 / II: V[Cit][PABC][NMeV]V[Dil][Dolaproine]-X2; disulfide I:2-I:24, I:14-I:26, I:20-I:32; linker I:15-II:N via X3; N-terminus assumed)
- Ki (U87MG cells): 0.9 nM
- inhibition of proliferation [1]: complete cell inhibition
- organ uptake ex vivo [2]: higher kidney and bladder uptake
- green intensity in the center of each optical slice as a function of depth [3]: remains relatively constant
- spheroid killing (U87MG tumor spheroids): substantially more killing than KFDC, KADC, or MMAE
